Results on 26 compounds are retold here after patent publication US12213969B2, “2-spiro-5- and 6-hydroxamic acid indanes as HDAC inhibitors” (Valo Health, Inc., priority 2016, dated 2025).

In this experiment the target is T1, Full length human recombinant HDAC6 protein (Homo sapiens, UniProt Q9UBN7).
T1 construct: made in house
T1 sequence (Q9UBN7 1-1215): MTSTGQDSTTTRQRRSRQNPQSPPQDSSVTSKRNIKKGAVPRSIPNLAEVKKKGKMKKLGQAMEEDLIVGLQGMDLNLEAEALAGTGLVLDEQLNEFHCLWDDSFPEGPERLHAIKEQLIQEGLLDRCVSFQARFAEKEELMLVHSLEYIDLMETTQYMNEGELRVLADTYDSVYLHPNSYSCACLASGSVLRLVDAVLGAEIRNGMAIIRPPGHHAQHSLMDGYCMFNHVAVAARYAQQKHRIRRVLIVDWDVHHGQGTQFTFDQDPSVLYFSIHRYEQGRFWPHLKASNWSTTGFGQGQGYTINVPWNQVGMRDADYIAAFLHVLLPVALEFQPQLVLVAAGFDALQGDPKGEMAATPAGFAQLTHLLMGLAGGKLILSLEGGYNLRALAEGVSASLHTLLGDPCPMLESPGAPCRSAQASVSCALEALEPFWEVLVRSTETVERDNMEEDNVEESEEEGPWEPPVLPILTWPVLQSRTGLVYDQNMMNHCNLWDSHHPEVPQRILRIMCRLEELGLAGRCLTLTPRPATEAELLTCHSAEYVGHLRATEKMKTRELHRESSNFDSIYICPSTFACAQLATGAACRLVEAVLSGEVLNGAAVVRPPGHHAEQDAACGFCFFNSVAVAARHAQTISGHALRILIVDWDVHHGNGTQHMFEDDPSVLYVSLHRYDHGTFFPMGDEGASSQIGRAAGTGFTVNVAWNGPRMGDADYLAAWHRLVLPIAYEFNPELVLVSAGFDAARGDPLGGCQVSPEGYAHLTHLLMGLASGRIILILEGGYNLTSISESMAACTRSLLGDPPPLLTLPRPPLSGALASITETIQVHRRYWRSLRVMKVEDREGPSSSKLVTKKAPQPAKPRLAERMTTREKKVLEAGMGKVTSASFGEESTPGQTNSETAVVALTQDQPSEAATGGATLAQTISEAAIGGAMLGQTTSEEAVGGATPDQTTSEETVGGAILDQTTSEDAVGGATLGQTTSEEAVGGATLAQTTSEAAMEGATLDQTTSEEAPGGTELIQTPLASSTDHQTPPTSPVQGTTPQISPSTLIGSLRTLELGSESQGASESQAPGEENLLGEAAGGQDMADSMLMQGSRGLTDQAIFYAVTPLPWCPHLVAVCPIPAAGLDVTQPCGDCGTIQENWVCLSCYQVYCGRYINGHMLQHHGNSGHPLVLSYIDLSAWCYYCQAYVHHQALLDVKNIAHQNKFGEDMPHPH
In words: In vitro histone deacetylase assay: enzymatic HDAC6 electrophoretic mobility shift assay. Conditions: peptide substrate RHKK(Ac)-NH2 2 μM, enzyme 1 nM, 25° C., 12 concentrations; read-out: HDAC6 activity range (IC50). Format: biochemical. As to the method:
The enzymatic HDAC6 assay was performed using electrophoretic mobility shift assay. Full length human recombinant HDAC6 protein was expressed in baculoviral system and purified by affinity chromatography. The enzymatic reactions were assembled in 384 well plates in a total volume of 25 μL in a reaction buffer composing: 100 mM HEPES, pH 7.5, 25 mM KCl, 0.1% bovine serum albumin, 0.01% Triton X-100, 1% DMSO (from compounds) 2 μM of the fluorescently labeled peptide substrate and enzyme. The enzyme was added at a final concentration of 1 nM. The peptide substrate RHKK(Ac)-NH2 was used. The compounds were tested at 12 concentrations spaced by 3× dilution intervals. Negative control samples (0%-inhibition in the absence of inhibitor) and positive control samples (100%-inhibition) were assembled in replicates of four in each assay plate. The reactions were incubated at 25° C. and quenched by the addition of 45 μL of termination buffer (100 mM HEPES, pH 7.5, 0.01% Triton X-100, 0.05% SDS).
The terminated assay plates were analyzed on LabChip® 3000 microfluidic electrophoresis instrument (Perkin Elmer/Caliper Life Sciences). The fluorescence intensity of the electrophoretically separated de-acetylated product and substrate peptide was measured. Activity in each sample was determined as the product to sum ratio (PSR): P/(S+P), where P is the peak height of the product peptide and S is the peak height of the substrate peptide. Percent inhibition (Pinh) is determined using the following equation:
Pinh=(PSR0%−PSRinh)/(PSR0%−PSR100%)*100, where PSRinh is the product sum ratio in the presence of inhibitor, PSR0% is the average product sum ration in the absence of inhibitor and PSR100% is the average product sum ratio in 100%-inhibition control samples. The IC50 values of inhibitors were determined by fitting the %-inhibition curves with 4 parameter dose-response model using XLfit 4 software.
As set forth in Table-7, below, IC50 values are defined as follows: IC50≤0.01 μM (+++); IC50>0.01 μM and ≤0.05 μM (++); IC50>0.05 μM (+).
(In general: A gel shift assay detects complexes by their altered migration in electrophoresis.)
By IC50 is commonly meant the concentration needed to halve the response being measured. Take `O=C(NO)c1ccc2c(c1)C[C@@]1(CCN(c3ccc(F)cc3)C1=O)C2` [Compound I-15, (R)-1′-(4-fluorophenyl)-N-hydroxy-2′-oxo-1,3-dihydrospiro[indene-2,3′-pyrrolidine]-5-carboxamide]: the IC50 lay in the range of 10 to 50 nM.

In the case of `O=C(NO)c1ccc2c(c1)C[C@@]1(CCN(C(=O)c3ccccc3)C1)C2` [Compound I-30, (R)-1′-benzoyl-N-hydroxy-1,3-dihydrospiro[indene-2,3′-pyrrolidine]-5-carboxamide], the IC50 was not above 10 nM.

As for `Cc1ccccc1CN1CC[C@]2(Cc3ccc(C(=O)NO)cc3C2)C1=O` [Compound I-9, (R)—N-hydroxy-1′-(2-methylbenzyl)-2′-oxo-1,3-dihydrospiro[indene-2,3′-pyrrolidine]-5-carboxamide], the IC50 was in the range of 10 to 50 nM.

Regarding `CCN1CC[C@]2(Cc3ccc(C(=O)NO)cc3C2)C1=O` [Compound I-5, (R)-1′-ethyl-N-hydroxy-2′-oxo-1,3-dihydrospiro[indene-2,3′-pyrrolidine]-5-carboxamide], the IC50 fell in the range of 10 to 50 nM.

Regarding `O=C(NO)c1ccc2c(c1)C[C@]1(CCN(Cc3ccccc3)C1)C2` [Compound I-27, (S)-1′-benzyl-N-hydroxy-1,3-dihydrospiro[indene-2,3′-pyrrolidine]-5-carboxamide], the IC50 lay within 10 to 50 nM.

As for `O=C(NO)c1ccc2c(c1)C[C@@]1(CCN(c3ccccn3)C1=O)C2` [Compound I-19, (R)—N-hydroxy-2′-oxo-1′-(pyridin-2-yl)-1,3-dihydrospiro[indene-2,3′-pyrrolidine]-5-carboxamide], the IC50 lay in the range of 10 to 50 nM.

Take `CC(C)N1CC[C@@]2(Cc3ccc(C(=O)NO)cc3C2)C1=O` [Compound I-4, (S)—N-hydroxy-1′-isopropyl-2′-oxo-1,3-dihydrospiro[indene-2,3′-pyrrolidine]-5-carboxamide]: the IC50 is more than 50 nM.

As to `CC(C)N1CC[C@]2(Cc3ccc(C(=O)NO)cc3C2)C1=O` [Compound I-3, (R)—N-hydroxy-1′-isopropyl-2′-oxo-1,3-dihydrospiro[indene-2,3′-pyrrolidine]-5-carboxamide], the IC50 lay in the range of 10 to 50 nM.

Consider `O=C(NO)c1ccc2c(c1)C[C@@]1(CCN(Cc3ccccc3)C1=O)C2` [Compound I-11, (R)-1′-benzyl-N-hydroxy-2′-oxo-1,3-dihydrospiro[indene-2,3′-pyrrolidine]-5-carboxamide], for which the IC50 was not above 10 nM.

`CC(C)CN1CC[C@@]2(Cc3ccc(C(=O)NO)cc3C2)C1=O` [Compound I-8, (S)—N-hydroxy-1′-isobutyl-2′-oxo-1,3-dihydrospiro[indene-2,3′-pyrrolidine]-5-carboxamide]: the IC50 is 10 to 50 nM.

For `O=C(NO)c1ccc2c(c1)C[C@@]1(CCN(Cc3cccnc3)C1=O)C2` [Compound I-23, (R)—N-hydroxy-2′-oxo-1′-(pyridin-3-ylmethyl)-1,3-dihydrospiro[indene-2,3′-pyrrolidine]-5-carboxamide], the IC50 was 10 to 50 nM.

In the case of `CC(=O)N1CC[C@]2(Cc3ccc(C(=O)NO)cc3C2)C1` [Compound I-28, (R)-1′-acetyl-N-hydroxy-1,3-dihydrospiro[indene-2,3′-pyrrolidine]-5-carboxamide], the IC50 fell in the range of 10 to 50 nM.

Turning to `CN1CC[C@]2(Cc3ccc(C(=O)NO)cc3C2)C1` [Compound I-24, (R)—N-hydroxy-1′-methyl-1,3-dihydrospiro[indene-2,3′-pyrrolidine]-5-carboxamide], the IC50 is 10 to 50 nM.

As to `CC(=O)N1CC[C@@]2(Cc3ccc(C(=O)NO)cc3C2)C1` [Compound I-29, (S)-1′-acetyl-N-hydroxy-1,3-dihydrospiro[indene-2,3′-pyrrolidine]-5-carboxamide], the IC50 was 10 to 50 nM.

Turning to `CN1CCC[C@@]2(Cc3ccc(C(=O)NO)cc3C2)C1=O` [Compound I-33, (S)—N-hydroxy-1′-methyl-2′-oxo-1,3-dihydrospiro[indene-2,3′-piperidine]-5-carboxamide], the IC50 lay within 10 to 50 nM.

For `CN1CCC[C@]2(Cc3ccc(C(=O)NO)cc3C2)C1=O` [Compound I-32, (R)—N-hydroxy-1′-methyl-2′-oxo-1,3-dihydrospiro[indene-2,3′-piperidine]-5-carboxamide], the IC50 lay within 10 to 50 nM.

For `O=C(NO)c1ccc2c(c1)C[C@]1(CCCN(Cc3ccccc3)C1=O)C2` [Compound I-35, (S)-1′-benzyl-N-hydroxy-2′-oxo-1,3-dihydrospiro[indene-2,3′-piperidine]-5-carboxamide], the IC50 lay in the range of 10 to 50 nM.

For `O=C(NO)c1ccc2c(c1)C[C@]1(CCN(Cc3ccccc3)C1=O)C2` [Compound I-12, (S)-1′-benzyl-N-hydroxy-2′-oxo-1,3-dihydrospiro[indene-2,3′-pyrrolidine]-5-carboxamide], the IC50 fell in the range of 10 to 50 nM.

For the compound `CN1CC[C@@]2(Cc3ccc(C(=O)NO)cc3C2)C1` [Compound I-25, (S)—N-hydroxy-1′-methyl-1,3-dihydrospiro[indene-2,3′-pyrrolidine]-5-carboxamide], the IC50 is more than 50 nM.

For `O=C(NO)c1ccc2c(c1)C[C@@]1(CCN(c3ccncc3)C1=O)C2` [Compound I-21, (R)—N-hydroxy-2′-oxo-1′-(pyridin-4-yl)-1,3-dihydrospiro[indene-2,3′-pyrrolidine]-5-carboxamide], the IC50 is 10 to 50 nM.

On to `O=C(NO)c1ccc2c(c1)C[C@]1(CCN(c3cccnc3)C1=O)C2` [Compound I-18, (S)—N-hydroxy-2′-oxo-1′-(pyridin-3-yl)-1,3-dihydrospiro[indene-2,3′-pyrrolidine]-5-carboxamide], for which the IC50 lay within 10 to 50 nM.

Regarding `CC(C)CN1CC[C@]2(Cc3ccc(C(=O)NO)cc3C2)C1=O` [Compound I-7, (R)—N-hydroxy-1′-isobutyl-2′-oxo-1,3-dihydrospiro[indene-2,3′-pyrrolidine]-5-carboxamide], the IC50 was in the range of 10 to 50 nM.

For the compound `CCN1CC[C@@]2(Cc3ccc(C(=O)NO)cc3C2)C1=O` [Compound I-6, (S)-1′-ethyl-N-hydroxy-2′-oxo-1,3-dihydrospiro[indene-2,3′-pyrrolidine]-5-carboxamide], the IC50 was more than 50 nM.

On to `O=C(NO)c1ccc2c(c1)C[C@]1(CCN(c3ccc(F)cc3)C1=O)C2` [Compound I-16, (S)-1′-(4-fluorophenyl)-N-hydroxy-2′-oxo-1,3-dihydrospiro[indene-2,3′-pyrrolidine]-5-carboxamide], for which the IC50 fell in the range of 10 to 50 nM.

As for `O=C(NO)c1ccc2c(c1)C[C@]1(CCN(c3ccccn3)C1=O)C2` [Compound I-20, (S)—N-hydroxy-2′-oxo-1′-(pyridin-2-yl)-1,3-dihydrospiro[indene-2,3′-pyrrolidine]-5-carboxamide], the IC50 lay in the range of 10 to 50 nM.

Turning to `O=C(NO)c1ccc2c(c1)C[C@]1(CCCN(c3ccccc3)C1=O)C2` [Compound I-37, (S)—N-hydroxy-2′-oxo-1′-phenyl-1,3-dihydrospiro[indene-2,3′-piperidine]-5-carboxamide], the IC50 was 10 to 50 nM.
